Each structure is given as a SMILES string. Read-outs that look alike come from different tables or passages of the source. A value given as a limit tells only on which side of the number the result lay.

For one assay, the target named is 229E Mpro (Human coronavirus 229E, UniProt P0C6X1). Put plainly: 229E Mpro enzymatic assay (standard methods, SARS-CoV2 Mpro assay given as exemplary). It is filed as biochemical, human coronavirus (HCov) 229E. Summed up:
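Run by standard methods, with the SARS-CoV-2 Mpro protocol given as the model: E. coli-expressed C-His6 protease at 25 nM and substrate at 25 μM (Km 13.5 μM). Buffer pH 7.3 with 5 mM TCEP and 0.1% BSA; % inhibition versus controls fitted to variable-slope log(inhibitor)-response for IC50.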

The target in assay [1] is COVID-19 (nCoV-2019, SARS-CoV2) Mpro (Severe acute respiratory syndrome coronavirus 2, UniProt P0DTD1). Kind of assay: COVID-19 (nCoV-2019, SARS-CoV2) Mpro enzymatic assay. It is filed as biochemical. Particulars: 25 μM substrate.
The next assay has as its system HCov OC43. Put plainly: HCoV OC43 cytopathic effect (CPE) assay, CellTiter Glo. The format is cell-based, human coronavirus (HCov) OC43. On the technique in general: Cytopathic effects are the visible damage that an infection or toxin causes in cultured cells.
[2] abbreviates: 25 nM Mpro, read-out: COVID-19 Mpro IC50.
The mark [3] stands for this setting: read-out: OC43 IC50 (uM) MEDIAN, median.
Setting [4] is: Betacoronavirus 1, OC43, read-out: OC43 IC50 (uM) MEDIAN, median.

229E Mpro, sequence (P0C6X1 2966-3267): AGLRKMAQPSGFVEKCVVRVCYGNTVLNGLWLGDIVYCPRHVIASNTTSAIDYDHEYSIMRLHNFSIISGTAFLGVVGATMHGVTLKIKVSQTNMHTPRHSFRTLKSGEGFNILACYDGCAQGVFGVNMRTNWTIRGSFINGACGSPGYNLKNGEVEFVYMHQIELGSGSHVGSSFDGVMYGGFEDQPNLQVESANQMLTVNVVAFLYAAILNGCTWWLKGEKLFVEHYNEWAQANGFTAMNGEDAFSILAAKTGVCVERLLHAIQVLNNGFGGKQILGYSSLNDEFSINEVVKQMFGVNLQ

A word on the EC50: it is the concentration at which the effect is half-maximal. For orientation: IC50 means the concentration at which inhibition is half-maximal. Take `CC1(O)CN(C(=O)C(c2cccnc2)N(C(=O)[C@H]2CCCN2C#N)c2ccc(C(C)(C)C)cc2)C1` (single isomer, unassigned) [955 Isomer 2]: at 229E Mpro (read-out: 229E Mpro EC50), the EC50 lay within 2000 to 10000 nM. The IC50 lay in the range of 10000 to 30000 nM in assay [1] (setting [2]) and 10 to 30 µM in the assay with HCov OC43 (setting [3]).
Compound `CC(C)(C#N)C(=O)N(c1ccc(S(F)(F)(F)(F)F)cc1)C(C(=O)NC1CCC(F)(F)CC1)c1cncc(F)c1` (single isomer, unassigned) [Compound 1316 Isomer 1, 2-cyano-N-[2-[(4,4-difluorocyclohexyl)amino]-1-(5-fluoro-3-pyridyl)-2-oxo-ethyl]-2-methyl-N-[4-(pentafluoro-λ6-sulfanyl)phenyl]propanamide] registered an EC50 on 229E Mpro (229E Mpro EC50) of 10000 to 30000 nM. Also, the IC50 is above 30000 nM in assay [1] (setting [2]) and above 30 µM with HCov OC43 (setting [4]).
The compound `CO[C@@H]1C[C@H](C(=O)N(c2ccc(S(F)(F)(F)(F)F)cc2)C(C(=O)NCCc2cccc(F)c2)c2cccnc2)N(C#N)C1` (single isomer, unassigned) [1197 Isomer 1] showed an EC50 on 229E Mpro (229E Mpro EC50) below 2000 nM. The figures for the IC50 (in assay [1] (setting [2]); in the assay on HCov OC43 (setting [4])) were below 2000 nM and below 2 µM, respectively.
`N#CN1C[C@@H](OCc2ccccc2)C[C@@H]1C(=O)N(c1ccc(S(F)(F)(F)(F)F)cc1)C(C(=O)NC1CCC(F)(F)CC1)c1cncc(F)c1` (single isomer, unassigned) [1280 Isomer 1] registered an EC50 on 229E Mpro (229E Mpro EC50) below 2000 nM. In addition, the results for the IC50 (in assay [1] (setting [2]); in the assay on HCov OC43 (setting [4])) were below 2000 nM and below 2 µM, respectively.
Take `O=C(NC1CCC(F)(F)CC1)C(c1cncc(F)c1)N(C(=O)c1cnc[nH]1)c1ccc(S(F)(F)(F)(F)F)cc1` (single isomer, unassigned) [1337 Isomer 2, N-[2-[(4,4-difluorocyclohexyl)amino]-1-(5-fluoro-3-pyridyl)-2-oxo-ethyl]-N-[4-(pentafluoro-λ6-sulfanyl)phenyl]-1H-imidazole-5-carboxamide]: the EC50 at 229E Mpro (read-out: 229E Mpro EC50) is 2000 to 10000 nM. Moreover, the IC50 in assay [1] (setting [2]) was 10000 to 30000 nM; with HCov OC43 (setting [3]), above 30 µM.
In turn, `CO[C@@H]1C[C@H](C(=O)N(c2ccc(C(C)(C)C)cc2)C(C)(C(=O)NC2CCC(F)(F)CC2)c2cnccn2)N(C#N)C1` (single isomer, unassigned) [1198 Isomer 2] showed an EC50 at 229E Mpro (229E Mpro EC50) below 2000 nM. The IC50 in assay [1] (setting [2]) was below 2000 nM; in the assay on HCov OC43 (setting [3]) it was below 2 µM.
On to `CO[C@@H]1C[C@H](C(=O)N(c2ccc(S(F)(F)(F)(F)F)cc2)C(C)(C(=O)NC2CCC(F)(F)CC2)c2cnccn2)N(C#N)C1` (single isomer, unassigned) [1299 Isomer 2], for which, on 229E Mpro (read-out: 229E Mpro EC50), the EC50 is below 2000 nM. For the same compound, the results for the IC50 (in assay [1] (setting [2]); with HCov OC43 (setting [3])) were below 2000 nM and below 2 µM, respectively.
Compound `C[C@@H]1OCCN(C#N)[C@H]1C(=O)N(c1ccc(S(F)(F)(F)(F)F)cc1)C(C(=O)NC1CCOCC1)c1cncc(F)c1` (stereo partly drawn) [Compound 1419] gave an EC50 on 229E Mpro (229E Mpro EC50) below 2000 nM. Besides, the IC50 in assay [1] (setting [2]) was below 2000 nM; in the assay on HCov OC43 (setting [4]), 2 to 10 µM.
Take `CO[C@@H]1C[C@H](C(=O)N(c2ccc(S(F)(F)(F)(F)F)cc2F)C(C(=O)NC2CCC(F)(F)CC2)c2cccnc2)N(C#N)C1` (single isomer, unassigned) [1288 Isomer 2]: the EC50 at 229E Mpro (read-out: 229E Mpro EC50) is below 2000 nM. For the same compound, the values for the IC50 (in assay [1] (setting [2]); in the assay with HCov OC43 (setting [3])) were below 2000 nM and 2 to 10 µM, respectively.
In turn, `CO[C@@H]1C[C@H](C(=O)N(c2ccc(S(F)(F)(F)(F)F)cc2)C(C(=O)Nc2ccc3c(c2)OCCO3)c2cccnc2)N(C#N)C1` (single isomer, unassigned) [1170 Isomer 2] returned an EC50 on 229E Mpro (229E Mpro EC50) below 2000 nM. Moreover, the IC50 in assay [1] (setting [2]) was below 2000 nM; with HCov OC43 (setting [3]) it was below 2 µM.
On 229E Mpro (229E Mpro EC50), `C[C@H](NC(=O)C(c1cncc(F)c1)N(C(=O)[C@H]1C[C@@](C)(O)CN1C#N)c1ccc(-c2ccccc2)cc1)c1ccccc1` (single isomer, unassigned) [1345 Isomer 2] had an EC50 of 10000 to 30000 nM. Further, the IC50 in assay [1] (setting [2]) lay within 2000 to 10000 nM; with HCov OC43 (setting [3]), 10 to 30 µM.
Turning to `N#CN1C2CCC1(C(=O)N(c1ccc(S(F)(F)(F)(F)F)cc1)C(C(=O)NC1CCC(F)(F)CC1)c1cncc(F)c1)CC2` (stereo not drawn) [Compound 1101, 7-cyano-N-[2-[(4,4-difluorocyclohexyl)amino]-1-(5-fluoro-3-pyridyl)-2-oxo-ethyl]-N-[4-(pentafluoro-λ6-sulfanyl)phenyl]-7-azabicyclo[2.2.1]heptane-1-carboxamide], at 229E Mpro (read-out: 229E Mpro EC50), the EC50 lay in the range of 2000 to 10000 nM. In addition, the IC50 was above 30000 nM in assay [1] (COVID-19 Mpro IC50, 25 nM Mpro) and above 30 µM with HCov OC43 (setting [4]).
The compound `COc1ccc(NC(=O)C(c2cccnc2)N(C(=O)[C@H]2C[C@@H](OC)CN2C#N)c2ccc(S(F)(F)(F)(F)F)cc2)cn1` (single isomer, unassigned) [1180 Isomer 1] gave an EC50 on 229E Mpro (229E Mpro EC50) of 2000 to 10000 nM. In addition, the IC50 in assay [1] (setting [2]) lay within 2000 to 10000 nM; with HCov OC43 (setting [4]), 2 to 10 µM.
In the case of `CO[C@@H]1C[C@H](C(=O)N(c2ccc(S(F)(F)(F)(F)F)cc2)C(C(=O)N(C)CC(=O)NC2CC2)c2cccnc2)N(C#N)C1` (single isomer, unassigned) [1122 Isomer 1], the EC50 on 229E Mpro (read-out: 229E Mpro EC50) is below 2000 nM. The IC50 in assay [1] (setting [2]) was below 2000 nM; with HCov OC43 (setting [3]), below 2 µM.
On 229E Mpro (229E Mpro EC50), `CC(C)(C)c1ccc(N(C(=O)[C@H]2C[C@@H](Oc3ccccc3)CN2C#N)C(C(=O)NC2CCCCC2)c2cccnc2)cc1` (single isomer, unassigned) [307 Isomer 2] registered an EC50 of 2000 to 10000 nM. For the same compound, the IC50 in assay [1] (setting [2]) is above 30000 nM; in the assay on HCov OC43 (setting [3]) it was 2 to 10 µM.
As for `N#CN1C[C@H](O)C[C@@H]1C(=O)N(c1ccc(C2(C(F)(F)F)CC2)cc1)C(C(=O)NC1CCC(F)(F)CC1)c1cncc(F)c1` (single isomer, unassigned) [Compound 815a Isomer 2], on 229E Mpro (read-out: 229E Mpro EC50), the EC50 was below 2000 nM. In addition, the IC50 was below 2000 nM in assay [1] (setting [2]) and below 2 µM in the assay on HCov OC43 (setting [3]).
For the compound `CO[C@@H]1C[C@H](C(=O)N(c2ccc(S(F)(F)(F)(F)F)cc2)C(C(=O)NCC2(C)COC2)c2cccnc2)N(C#N)C1` (single isomer, unassigned) [1176 Isomer 1], at 229E Mpro (229E Mpro EC50), the EC50 is below 2000 nM. For the same compound, the results for the IC50 (in assay [1] (setting [2]); in the assay with HCov OC43 (setting [4])) were below 2000 nM and below 2 µM, respectively.
Consider `CO[C@@H]1C[C@H](C(=O)N(c2ccc(S(F)(F)(F)(F)F)cc2)C(C(=O)N(C)CC(=O)NC2CC2)c2cccnc2)N(C#N)C1` (single isomer, unassigned) [1122 Isomer 2], for which the EC50 on 229E Mpro (read-out: 229E Mpro EC50) was below 2000 nM. The IC50 lay within 10000 to 30000 nM in assay [1] (setting [2]) and 2 to 10 µM with HCov OC43 (setting [3]).
As to `C[C@H](NC(=O)C(c1cnccn1)N(C(=O)c1ccco1)c1ccc(-c2ccccc2)cc1)c1ccccc1` (single isomer, unassigned) [1355 Isomer 2], the EC50 on 229E Mpro (read-out: 229E Mpro EC50) is 2000 to 10000 nM. Further, the IC50 in assay [1] (setting [2]) is below 2000 nM; with HCov OC43 (setting [3]), above 30 µM.
At 229E Mpro (229E Mpro EC50), `CC(C)(C)c1ccc(N(C(=O)C2CCC(F)(F)CN2C#N)C(C(=O)NC2CCCCC2)c2cccnc2)cc1` (single isomer, unassigned) [885 Isomer 2, N-(4-(tert-butyl)phenyl)-1-cyano-N-(2-(cyclohexylamino)-2-oxo-1-(pyridin-3-yl)ethyl)-5,5-difluoropiperidine-2-carboxamide] registered an EC50 below 2000 nM. The IC50 in assay [1] (setting [2]) was below 2000 nM; with HCov OC43 (setting [3]) it was 2 to 10 µM.
The compound `CO[C@@H]1C[C@H](C(=O)N(c2ccc(S(F)(F)(F)(F)F)cc2)C(C(=O)NC2C[C@@H](C)O[C@@H](C)C2)c2cccnc2)N(C#N)C1` (single isomer, unassigned) [Compound 1185] returned an EC50 at 229E Mpro (229E Mpro EC50) below 2000 nM. Further, the IC50 was below 2000 nM in assay [1] (setting [2]) and below 2 µM with HCov OC43 (setting [4]).

Values taken from US20220380347A1, “INHIBITORS OF CYSTEINE PROTEASES AND METHODS OF USE THEREOF” (Pardes Biosciences, Inc., priority 2020, published 2022).
